US20160200733A1, “SUBSTITUTED THIENO[2,3-B]PYRIDINE-2-CARBOXAMIDE ANALOGS AS POSITIVE ALLOSTERIC MODULATORS OF THE MUSCARINIC ACETYLCHOLINE RECEPTOR M4” (Vanderbilt University, priority 2013, published 2016)

Biological target: T1, mAChR hM4 (Homo sapiens, UniProt P08173)
T1 construct: expressed in transfected cells; host or cells: CHO-K1 (Chinese hamster ovary) cells
T1 sequence (P08173 1-479): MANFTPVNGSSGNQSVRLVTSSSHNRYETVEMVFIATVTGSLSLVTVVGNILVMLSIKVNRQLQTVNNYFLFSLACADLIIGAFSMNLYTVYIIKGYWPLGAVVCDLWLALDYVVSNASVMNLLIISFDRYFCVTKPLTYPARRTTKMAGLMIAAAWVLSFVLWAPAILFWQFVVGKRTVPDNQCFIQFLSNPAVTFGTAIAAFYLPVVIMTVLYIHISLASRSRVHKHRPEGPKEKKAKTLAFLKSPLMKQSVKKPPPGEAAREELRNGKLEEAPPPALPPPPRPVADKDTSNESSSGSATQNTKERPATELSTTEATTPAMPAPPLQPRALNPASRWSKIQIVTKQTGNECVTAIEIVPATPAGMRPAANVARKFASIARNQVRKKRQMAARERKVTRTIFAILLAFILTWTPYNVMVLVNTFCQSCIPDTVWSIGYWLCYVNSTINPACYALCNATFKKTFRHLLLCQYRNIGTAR
Assay: mAChR M4 cell-based functional assay (calcium flux, potentiation of EC20 acetylcholine response)
Conditions: mAChR hM4 cell-line; for EC50: >10,000 estimated for low potency compounds lacking a plateau; for Emax at 30 µM: % ACh maximum at 30 μM
From the text: In one aspect, the disclosed compounds potentiate the agonist response (e.g., acetylcholine) of mAChR M4. In a further aspect, the disclosed compounds increase mAChR M4 response to non-maximal concentrations of agonist in the presence of compound compared to the response to agonist in the absence of compound. […] For example, activation of mAChR M4 activity can be determined by measurement of calcium flux in response to agonist, e.g. acetylcholine, in cells loaded with a Ca^2+-sensitive fluorescent dye (e.g., Fluo-4). In a further aspect, the calcium flux was measured as an increase in fluorescent static ratio. In a yet further aspect, positive allosteric modulator activity was analyzed as a concentration-dependent increase in the EC20 acetylcholine response (i.e. the response of mAChR M4 at a concentration of acetylcholine that yields 20% of the maximal response).
In one aspect, the disclosed compounds activate mAChR M4 response as an increase in calcium fluorescence in mAChR M4-transfected CHO-K1 cells in the presence of the compound, compared to the response of equivalent CHO-K1 cells in the absence of the compound. […] In a further aspect, the mAChR M4-transfected CHO-K1 cells are transfected with human mAChR M4. In a still further aspect, the mAChR M4-transfected CHO-K1 cells are transfected with rat mAChR M4.
Substituted 3-aminothieno[2,3-c]pyridine-2-carboxamide analogs were synthesized as described above. Activity (EC50 and Emax) was determined in the mAChR M4 cell-based functional assay as described above, and the data are shown in Table II for assays conducted using mAChR hM4 cell-line. The compound number corresponds to the compound numbers used in Table I.

Row | SMILES | EC50 [µM] | Emax at 30 µM [%]
1 | COc1ccc(CNC(=O)c2sc3nc(C)c(Cl)c(C)c3c2C2CC2)cc1F [Compound 69, 5-chloro-3-cyclopropyl-N-(3-fluoro-4-methoxybenzyl)-4,6-dimethylthieno[2,3-b]pyridine-2-carboxamide] | > 10 | 
2 | Cc1cc(C)c2c(-c3cnn(C)c3)c(C(=O)NCc3ccc4c(c3)CCO4)sc2n1 [Compound 70, N-((2,3-dihydrobenzofuran-5-yl)methyl)-4,6-dimethyl-3-(1-methyl-1H-pyrazol-4-yl)thieno[2,3-b]pyridine-2-carboxamide] | > 10 | 
3 | Cc1cc(C)c2c(-c3cnn(C)c3)c(C(=O)NCc3cnn(-c4ccccc4)c3)sc2n1 [Compound 71, 4,6-dimethyl-3-(1-methyl-1H-pyrazol-4-yl)-N-((1-phenyl-1H-pyrazol-4-yl)methyl)thieno[2,3-b]pyridine-2-carboxamide] | > 10 | 
4 | Cc1nc2sc(C(=O)NCc3cnn(-c4ccccc4)c3)c(C3CC3)c2c(C)c1Cl [Compound 73, 5-chloro-3-cyclopropyl-4,6-dimethyl-N-((1-phenyl-1H-pyrazol-4-yl)methyl)thieno[2,3-b]pyridine-2-carboxamide] | > 10 | 
5 | Cc1cc(C)c2cc(C(=O)NC3COC3)sc2n1 [Compound 74, 4,6-dimethyl-N-(oxetan-3-yl)thieno[2,3-b]pyridine-2-carboxamide] | > 10 | 46
6 | Cc1cc(C)c2cc(C(=O)NC3CN(c4ccc(C(F)(F)F)nc4)C3)sc2n1 [Compound 76, 4,6-dimethyl-N-(1-(6-(trifluoromethyl)pyridin-3-yl)azetidin-3-yl)thieno[2,3-b]pyridine-2-carboxamide] | > 10 | 
7 | Cc1cc(C)c2cc(C(=O)NCc3cnn(-c4ccccc4)c3)sc2n1 [Compound 77, 4,6-dimethyl-N-((1-phenyl-1H-pyrazol-4-yl)methyl)thieno[2,3-b]pyridine-2-carboxamide] | > 10 | 
8 | Cc1cc(C)c2cc(C(=O)NCc3ccc(-c4cccnc4F)cc3)sc2n1 [Compound 78, N-(4-(2-fluoropyridin-3-yl)benzyl)-4,6-dimethylthieno[2,3-b]pyridine-2-carboxamide] | > 10 | 34
9 | Cc1cc(C)c2cc(C(=O)NCc3ccc(-c4ccnnc4)s3)sc2n1 [Compound 79, 4,6-dimethyl-N-((5-(pyridazin-4-yl)thiophen-2-yl)methyl)thieno[2,3-b]pyridine-2-carboxamide] | > 10 | 
10 | Cc1cc(C)c2cc(C(=O)N3CCC(c4ccccc4)C3)sc2n1 (centres unmarked) [Compound 83, (4,6-dimethylthieno[2,3-b]pyridin-2-yl)(3-phenylpyrrolidin-1-yl)methanone] | > 10 | 

More lines, now with the values ahead:

Row | EC50 [µM] | Emax at 30 µM [%] | SMILES
11 | > 10 |  | Cc1nc2sc(C(=O)N3CC(c4ccccc4)C3)c(C3CC3)c2c(C)c1Cl [Compound 72, (5-chloro-3-cyclopropyl-4,6-dimethylthieno[2,3-b]pyridin-2-yl)(3-phenylazetidin-1-yl)methanone]
12 | 1.2 | 67 | Cc1cc(C)c2cc(C(=O)NC3CN(c4cccnc4)C3)sc2n1 [Compound 75, 4,6-dimethyl-N-(1-(pyridin-3-yl)azetidin-3-yl)thieno[2,3-b]pyridine-2-carboxamide]
13 | > 10 |  | Cc1cc(C)c2cc(C(=O)NCC3CCN(c4ccccc4)C3)sc2n1 (centres unmarked) [Compound 80, 4,6-dimethyl-N-((1-phenylpyrrolidin-3-yl)methyl)thieno[2,3-b]pyridine-2-carboxamide]
14 | 0.82 | 30 | COc1ccc(C2CC2NC(=O)c2cc3c(C)cc(C)nc3s2)cc1 (centres unmarked) [Compound 81, N-(2-(4-methoxyphenyl)cyclopropyl)-4,6-dimethylthieno[2,3-b]pyridine-2-carboxamide]
15 | 2.4 | 34 | Cc1cc(C)c2cc(C(=O)N3CC(c4ccccc4)C3)sc2n1 [Compound 82, (4,6-dimethylthieno[2,3-b]pyridin-2-yl)(3-phenylazetidin-1-yl)methanone]
